Experimental data from PubChem BioAssay AID488797 (The Scripps Research Institute Molecular Screening Center, 2010).
Active and inactive are the calls of the source.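 Rule for the calls: active = half-inhibiting concentration IC50 at or below 10 µM; inactive = IC50 above 10 µM.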

target: Female germline-specific tumor suppressor gld-1 (Caenorhabditis elegans) (UniProt Q17339); test: C. elegans gld-1 RNA interaction inhibition curves – biochemical, fluorescence polarization, IC50, powder samples, late-stage follow-up (AID 488797); conditions: GLD-1 / FL-TGE RNA binding
Sequence (Q17339 whole entry, looked up): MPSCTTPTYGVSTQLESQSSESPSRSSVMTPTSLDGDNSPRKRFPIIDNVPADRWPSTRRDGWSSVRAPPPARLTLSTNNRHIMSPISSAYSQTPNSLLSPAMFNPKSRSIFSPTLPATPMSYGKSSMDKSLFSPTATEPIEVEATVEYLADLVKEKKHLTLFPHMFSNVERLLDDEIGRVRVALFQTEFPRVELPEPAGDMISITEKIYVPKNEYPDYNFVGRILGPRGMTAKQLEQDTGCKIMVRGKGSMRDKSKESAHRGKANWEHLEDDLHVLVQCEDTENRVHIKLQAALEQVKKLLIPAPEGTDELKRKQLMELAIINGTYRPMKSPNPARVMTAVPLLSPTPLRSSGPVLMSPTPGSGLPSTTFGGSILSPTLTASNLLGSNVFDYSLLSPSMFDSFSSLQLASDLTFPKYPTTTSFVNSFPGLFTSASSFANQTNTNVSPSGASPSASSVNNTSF

Row | Structure (SMILES) | IC50
1 | Nc1ccc2nonc2c1[N+](=O)[O-] | > 59.6 µM (inactive)
2 | CCOC(=O)c1c(C)oc2c1cc(NS(=O)(=O)c1ccc(C)cc1)c1ccccc12 | > 59.6 µM (inactive)
3 | O=C1C2=C(SCCS2)C(=O)N1CCCO | 4.73 µM
4 | COc1ccc(/C=C(\CC(=O)O)c2nc3ccccc3s2)cc1O | 2.17 µM
5 | COc1ccc(C=Nc2c(-c3ccco3)nc3ccccn23)cc1OC | > 59.6 µM (inactive)
6 | Cc1ccc(S(=O)(=O)Nc2cc3c(C(=O)Nc4ccccc4)c(C)oc3c3ccccc23)c(C)c1 | 1.14 µM
7 | O=C(CN1C(=O)NC2(CCCCC2)C1=O)Oc1ccc2c(C(F)(F)F)cc(=O)oc2c1 | 5.62 µM
8 | O=c1[nH]c(=O)c2nc3ccccc3nc2[nH]1 | inactive
9 | Nc1ccc(O)c2c1C(=O)c1ccccc1C2=O | 3 µM
10 | Cc1ccc(S(=O)(=O)Nc2cc3c(C(=O)Nc4ccccc4)c(C)oc3c3ccccc23)cc1 | 1.66 µM
11 | CCCCn1c(=O)[nH]c2nc3cc(NC(C)=O)ccc3nc2c1=O | 2.62 µM
12 | CCN(CC)S(=O)(=O)c1ccc(N2CCCC2)c(NS(=O)(=O)c2ccc(F)cc2)c1 | inactive
13 | Nc1c(O)ccc2c1C(=O)c1ccccc1C2=O | 4.17 µM
14 | O=c1[nH]c2cc3ccccc3cc2nc1C(F)(F)F | 2.5 µM
15 | CC1=CC(=O)c2c(O)ccc(O)c2C1=O | 5.67 µM
